Target: K562 (Homo sapiens)
Assay: Cell assay using human leukemia cell line K562.

SMILES	IC50
Cc1c(COc2ccc([N+](=O)[O-])cc2)c2c(O)c(N=CCCCN)cc(O)c2n1C [Indolequinone, compd 1]	> 10 µM
Cc1c(COc2c(F)cc(F)cc2F)c2c(O)c(N=CCCCN)cc(O)c2n1C [Indolequinone, compd 2]	> 10 µM
Cc1c(COc2c(F)cc(F)cc2F)c2c(O)cc(N=CCCCN)c(O)c2n1C [Indolequinone, compd 3]	> 10 µM
Cc1c(COc2c(F)cc(F)cc2F)c2c(O)c(N=CCCN)cc(O)c2n1C [Indolequinone, compd 4]	> 10 µM
Cc1c(COc2c(F)cc(F)cc2F)c2c(O)c(N=CCCN(C)C)cc(O)c2n1C [Indolequinone, compd 5]	> 10 µM
Cc1c(COc2c(F)cc(F)cc2F)c2c(O)cc(N=CCCN(C)C)c(O)c2n1C [Indolequinone, compd 6]	> 10 µM
Cc1c(COc2c(F)cc(F)cc2F)c2c(n1C)C(=O)C=C(N(C)CCCN(C)C)C2=O [Indolequinone, compd 7]	> 10 µM
Cc1c(COc2ccccc2)c2c(O)c(N=CCCN(C)C)cc(O)c2n1C [Indolequinone, compd 8]	> 10 µM
Cc1c(CO)c2c(O)c(N=CCCN(C)C)cc(O)c2n1C [Indolequinone, compd 9]	> 10 µM

Reference: BindingDB's records for doi:10.1021/bi2002967 (University of Colorado Denver, 2011)
